Values after ≈ are worked out from the molar mass of the structure shown.
Tested on: Escherichia coli
Assay: minimum inhibitory concentration (MIC)
Procedure: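 Broth microdilution MIC (Sensititre BOPO7F bovine plate, CLSI methods) of 19 antimicrobials against field isolates of P. multocida, M. haemolytica, H. somni (deep nasopharyngeal swabs) and E. coli, Enterococcus spp. (rectal swabs) from weaned dairy heifers. Incubation 16-24 h at 35 C. MIC is the lowest concentration preventing visible growth. Values with <= or > lie at the tested range limits. Trimethoprim-sulfamethoxazole is given as the trimethoprim component of a 1:19 mixture.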

For `CC1(C)S[C@@H]2[C@H](NC(=O)Cc3ccccc3)C(=O)N2[C@H]1C(=O)O` [Penicillin], the minimum inhibitory concentration (isolate (source animal id): 8) was > 8 µg/mL, the minimum inhibitory concentration (isolate (source animal id): 9) was > 8 µg/mL and the minimum inhibitory concentration (isolate (source animal id): 10) was > 8 µg/mL. The minimum inhibitory concentration (isolate (source animal id): 11) was > 8 µg/mL, the minimum inhibitory concentration (isolate (source animal id): 12) was > 8 µg/mL and the minimum inhibitory concentration (isolate (source animal id): 13) was > 8 µg/mL. For the same compound, the minimum inhibitory concentration (isolate (source animal id): 14) was > 8 µg/mL, the minimum inhibitory concentration (isolate (source animal id): 15) was > 8 µg/mL and the minimum inhibitory concentration (isolate (source animal id): 16) was > 8 µg/mL. The minimum inhibitory concentration (isolate (source animal id): 98) was > 8 µg/mL, the minimum inhibitory concentration (isolate (source animal id): 99) was > 8 µg/mL and the minimum inhibitory concentration (isolate (source animal id): 100) was > 8 µg/mL. The minimum inhibitory concentration (isolate (source animal id): 101) was 4 µg/mL (≈ 12 µM), the minimum inhibitory concentration (isolate (source animal id): 102) was > 8 µg/mL and the minimum inhibitory concentration (isolate (source animal id): 103) was > 8 µg/mL. For the same compound, the minimum inhibitory concentration (isolate (source animal id): 104) was > 8 µg/mL, the minimum inhibitory concentration (isolate (source animal id): 105) was > 8 µg/mL and the minimum inhibitory concentration (isolate (source animal id): 106) was > 8 µg/mL. The minimum inhibitory concentration (isolate (source animal id): 107) was > 8 µg/mL, the minimum inhibitory concentration (isolate (source animal id): 108) was > 8 µg/mL and the minimum inhibitory concentration (isolate (source animal id): 109) was > 8 µg/mL. For the same compound, the minimum inhibitory concentration (isolate (source animal id): 110) was > 8 µg/mL, the minimum inhibitory concentration (isolate (source animal id): 111) was > 8 µg/mL and the minimum inhibitory concentration (isolate (source animal id): 112) was > 8 µg/mL. The minimum inhibitory concentration (isolate (source animal id): 113) was > 8 µg/mL, the minimum inhibitory concentration (isolate (source animal id): 114) was > 8 µg/mL and the minimum inhibitory concentration (isolate (source animal id): 115) was > 8 µg/mL. The minimum inhibitory concentration (isolate (source animal id): 116) was > 8 µg/mL, the minimum inhibitory concentration (isolate (source animal id): 117) was > 8 µg/mL and the minimum inhibitory concentration (isolate (source animal id): 118) was > 8 µg/mL. For the same compound, the minimum inhibitory concentration (isolate (source animal id): 119) was > 8 µg/mL, the minimum inhibitory concentration (isolate (source animal id): 120) was > 8 µg/mL and the minimum inhibitory concentration (isolate (source animal id): 121) was > 8 µg/mL. For the same compound, the minimum inhibitory concentration (isolate (source animal id): 122) was 8 µg/mL (≈ 23.9 µM), the minimum inhibitory concentration (isolate (source animal id): 123) was > 8 µg/mL and the minimum inhibitory concentration (isolate (source animal id): 124) was > 8 µg/mL. For the same compound, the minimum inhibitory concentration (isolate (source animal id): 125) was > 8 µg/mL, the minimum inhibitory concentration (isolate (source animal id): 126) was > 8 µg/mL and the minimum inhibitory concentration (isolate (source animal id): 127) was > 8 µg/mL. For the same compound, the minimum inhibitory concentration (isolate (source animal id): 128) was > 8 µg/mL, the minimum inhibitory concentration (isolate (source animal id): 129) was > 8 µg/mL and the minimum inhibitory concentration (isolate (source animal id): 130) was > 8 µg/mL. The minimum inhibitory concentration (isolate (source animal id): 131) was > 8 µg/mL, the minimum inhibitory concentration (isolate (source animal id): 132) was > 8 µg/mL and the minimum inhibitory concentration (isolate (source animal id): 133) was > 8 µg/mL. For the same compound, the minimum inhibitory concentration (isolate (source animal id): 134) was > 8 µg/mL, the minimum inhibitory concentration (isolate (source animal id): 135) was > 8 µg/mL and the minimum inhibitory concentration (isolate (source animal id): 136) was > 8 µg/mL. For the same compound, the minimum inhibitory concentration (isolate (source animal id): 137) was > 8 µg/mL, the minimum inhibitory concentration (isolate (source animal id): 138) was > 8 µg/mL and the minimum inhibitory concentration (isolate (source animal id): 139) was 8 µg/mL (≈ 23.9 µM). The minimum inhibitory concentration (isolate (source animal id): 140) was > 8 µg/mL, the minimum inhibitory concentration (isolate (source animal id): 141) was > 8 µg/mL and the minimum inhibitory concentration (isolate (source animal id): 142) was > 8 µg/mL. For the same compound, the minimum inhibitory concentration (isolate (source animal id): 143) was > 8 µg/mL, the minimum inhibitory concentration (isolate (source animal id): 144) was > 8 µg/mL and the minimum inhibitory concentration (isolate (source animal id): 145) was > 8 µg/mL. For the same compound, the minimum inhibitory concentration (isolate (source animal id): 146) was > 8 µg/mL, the minimum inhibitory concentration (isolate (source animal id): 147) was > 8 µg/mL and the minimum inhibitory concentration (isolate (source animal id): 148) was > 8 µg/mL. The minimum inhibitory concentration (isolate (source animal id): 149) was > 8 µg/mL, the minimum inhibitory concentration (isolate (source animal id): 150) was > 8 µg/mL and the minimum inhibitory concentration (isolate (source animal id): 151) was 8 µg/mL (≈ 23.9 µM). The minimum inhibitory concentration (isolate (source animal id): 152) was > 8 µg/mL, the minimum inhibitory concentration (isolate (source animal id): 153) was > 8 µg/mL and the minimum inhibitory concentration (isolate (source animal id): 154) was > 8 µg/mL. The minimum inhibitory concentration (isolate (source animal id): 155) was > 8 µg/mL, the minimum inhibitory concentration (isolate (source animal id): 156) was > 8 µg/mL and the minimum inhibitory concentration (isolate (source animal id): 157) was > 8 µg/mL. For the same compound, the minimum inhibitory concentration (isolate (source animal id): 158) was > 8 µg/mL, the minimum inhibitory concentration (isolate (source animal id): 159) was > 8 µg/mL and the minimum inhibitory concentration (isolate (source animal id): 160) was > 8 µg/mL. The minimum inhibitory concentration (isolate (source animal id): 161) was > 8 µg/mL, the minimum inhibitory concentration (isolate (source animal id): 162) was > 8 µg/mL and the minimum inhibitory concentration (isolate (source animal id): 163) was > 8 µg/mL. For the same compound, the minimum inhibitory concentration (isolate (source animal id): 164) was > 8 µg/mL, the minimum inhibitory concentration (isolate (source animal id): 165) was > 8 µg/mL and the minimum inhibitory concentration (isolate (source animal id): 166) was > 8 µg/mL. For the same compound, the minimum inhibitory concentration (isolate (source animal id): 167) was > 8 µg/mL, the minimum inhibitory concentration (isolate (source animal id): 168) was > 8 µg/mL and the minimum inhibitory concentration (isolate (source animal id): 169) was > 8 µg/mL. For the same compound, the minimum inhibitory concentration (isolate (source animal id): 170) was > 8 µg/mL, the minimum inhibitory concentration (isolate (source animal id): 171) was > 8 µg/mL and the minimum inhibitory concentration (isolate (source animal id): 172) was > 8 µg/mL. The minimum inhibitory concentration (isolate (source animal id): 173) was > 8 µg/mL, the minimum inhibitory concentration (isolate (source animal id): 174) was > 8 µg/mL and the minimum inhibitory concentration (isolate (source animal id): 175) was > 8 µg/mL. For the same compound, the minimum inhibitory concentration (isolate (source animal id): 176) was > 8 µg/mL, the minimum inhibitory concentration (isolate (source animal id): 177) was > 8 µg/mL and the minimum inhibitory concentration (isolate (source animal id): 178) was > 8 µg/mL. For the same compound, the minimum inhibitory concentration (isolate (source animal id): 179) was > 8 µg/mL, the minimum inhibitory concentration (isolate (source animal id): 180) was > 8 µg/mL and the minimum inhibitory concentration (isolate (source animal id): 181) was > 8 µg/mL. The minimum inhibitory concentration (isolate (source animal id): 182) was > 8 µg/mL, the minimum inhibitory concentration (isolate (source animal id): 183) was > 8 µg/mL and the minimum inhibitory concentration (isolate (source animal id): 184) was > 8 µg/mL. The minimum inhibitory concentration (isolate (source animal id): 185) was > 8 µg/mL, the minimum inhibitory concentration (isolate (source animal id): 186) was > 8 µg/mL and the minimum inhibitory concentration (isolate (source animal id): 187) was > 8 µg/mL. For the same compound, the minimum inhibitory concentration (isolate (source animal id): 188) was > 8 µg/mL.
